Test results from PubChem BioAssay (NCI).
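GI50 is the concentration that inhibits growth by half. At the TGI there is no net growth.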

Key:
Assay in all cases: NCI-60 cell line screen, 384-well format
786-0 renal = system: 786-0 renal
A498 renal = system: A498 renal
A549 NSCLC = system: A549 NSCLC
ACHN renal = system: ACHN renal
BT-549 breast = system: BT-549 breast
CAKI-1 renal = system: CAKI-1 renal
CCRF-CEM leukemia = system: CCRF-CEM leukemia
COLO 205 colon = system: COLO 205 colon
DU-145 prostate = system: DU-145 prostate
EKVX NSCLC = system: EKVX NSCLC
HCC-2998 colon = system: HCC-2998 colon
HCT-15 colon = system: HCT-15 colon
HL-60(TB) leukemia = system: HL-60(TB) leukemia
HOP-62 NSCLC = system: HOP-62 NSCLC
HOP-92 NSCLC = system: HOP-92 NSCLC
HS 578T breast = system: HS 578T breast
HT29 colon = system: HT29 colon
IGROV1 ovarian = system: IGROV1 ovarian
KM12 colon = system: KM12 colon
M14 melanoma = system: M14 melanoma
MALME-3M melanoma = system: MALME-3M melanoma
MCF7 breast = system: MCF7 breast
MDA-MB-231 breast = system: MDA-MB-231 breast
MDA-MB-435 melanoma = system: MDA-MB-435 melanoma
MDA-MB-468 breast = system: MDA-MB-468 breast
MOLT-4 leukemia = system: MOLT-4 leukemia
NCI-H226 lung = system: NCI-H226 lung
NCI-H23 lung = system: NCI-H23 lung
NCI-H322M lung = system: NCI-H322M lung
NCI-H460 NSCLC = system: NCI-H460 NSCLC
NCI-H522 lung = system: NCI-H522 lung
NCI/ADR-RES ovarian = system: NCI/ADR-RES ovarian
OVCAR-3 ovarian = system: OVCAR-3 ovarian
OVCAR-4 ovarian = system: OVCAR-4 ovarian
OVCAR-5 ovarian = system: OVCAR-5 ovarian
OVCAR-8 ovarian = system: OVCAR-8 ovarian
PC-3 prostate = system: PC-3 prostate
RPMI-8226 leukemia = system: RPMI-8226 leukemia
RXF 393 renal = system: RXF 393 renal
SF-268 CNS = system: SF-268 CNS
SF-295 CNS = system: SF-295 CNS
SF-539 CNS = system: SF-539 CNS
SK-MEL-2 melanoma = system: SK-MEL-2 melanoma
SK-MEL-28 melanoma = system: SK-MEL-28 melanoma
SK-MEL-5 melanoma = system: SK-MEL-5 melanoma
SK-OV-3 ovarian = system: SK-OV-3 ovarian
SN12C renal = system: SN12C renal
SNB-19 CNS = system: SNB-19 CNS
SNB-75 CNS = system: SNB-75 CNS
SR leukemia = system: SR leukemia
SW-620 colon = system: SW-620 colon
T-47D breast = system: T-47D breast
TK-10 renal = system: TK-10 renal
U251 glioblastoma = system: U251 glioblastoma
UACC-257 melanoma = system: UACC-257 melanoma
UACC-62 melanoma = system: UACC-62 melanoma

Work on `C/C=C/C/C=C/CCC(=O)[C@H]1O[C@H]1C(N)=O` yielded a GI50 (786-0 renal) of 14.4 µM, a TGI (786-0 renal) of 28.2 µM and a GI50 (A498 renal) of 17.7 µM. For the same compound, the TGI (A498 renal) was 31.7 µM, the GI50 (A549 NSCLC) was 16.6 µM and the TGI (A549 NSCLC) was 30.4 µM. For the same compound, the GI50 (ACHN renal) was 16.9 µM, the TGI (ACHN renal) was 30.7 µM and the GI50 (BT-549 breast) was 3.21 µM. For the same compound, the TGI (BT-549 breast) was 12.8 µM, the GI50 (CAKI-1 renal) was 14 µM and the TGI (CAKI-1 renal) was 27 µM. For the same compound, the GI50 (CCRF-CEM leukemia) was 3.26 µM, the TGI (CCRF-CEM leukemia) was 11.3 µM and the GI50 (COLO 205 colon) was 21 µM. The TGI (COLO 205 colon) was 35.4 µM, the GI50 (DU-145 prostate) was 12.7 µM and the TGI (DU-145 prostate) was 25.4 µM. The GI50 (EKVX NSCLC) was 6.48 µM, the TGI (EKVX NSCLC) was 18.9 µM and the GI50 (HCC-2998 colon) was 12.7 µM. For the same compound, the TGI (HCC-2998 colon) was 25.3 µM, the GI50 (HCT-15 colon) was 6.61 µM and the TGI (HCT-15 colon) was 19.6 µM. It also gave a GI50 (HL-60(TB) leukemia) of 7.3 µM, a TGI (HL-60(TB) leukemia) of 19.3 µM and a GI50 (HOP-62 NSCLC) of 1.34 µM. The TGI (HOP-62 NSCLC) was 5.19 µM, the GI50 (HOP-92 NSCLC) was 11.5 µM and the TGI (HOP-92 NSCLC) was 23.9 µM. The GI50 (HS 578T breast) was 8.38 µM, the TGI (HS 578T breast) was 21 µM and the GI50 (HT29 colon) was 18.1 µM. The TGI (HT29 colon) was 32.7 µM, the GI50 (IGROV1 ovarian) was 14.6 µM and the TGI (IGROV1 ovarian) was 28.8 µM. It also gave a GI50 (KM12 colon) of 13 µM, a TGI (KM12 colon) of 26.1 µM and a GI50 (M14 melanoma) of 12.2 µM. For the same compound, the TGI (M14 melanoma) was 25 µM, the GI50 (MALME-3M melanoma) was 12.7 µM and the TGI (MALME-3M melanoma) was 25.3 µM. The GI50 (MCF7 breast) was 5.89 µM, the TGI (MCF7 breast) was 18.4 µM and the GI50 (MDA-MB-231 breast) was 11.6 µM. The TGI (MDA-MB-231 breast) was 24.5 µM, the GI50 (MDA-MB-435 melanoma) was 16 µM and the TGI (MDA-MB-435 melanoma) was 30 µM. The GI50 (MDA-MB-468 breast) was 2.17 µM, the TGI (MDA-MB-468 breast) was 4.86 µM and the GI50 (MOLT-4 leukemia) was 4.91 µM. For the same compound, the TGI (MOLT-4 leukemia) was 16.9 µM, the GI50 (NCI-H226 lung) was 7.61 µM and the TGI (NCI-H226 lung) was 19.7 µM. The GI50 (NCI-H23 lung) was 3.72 µM, the TGI (NCI-H23 lung) was 12.7 µM and the GI50 (NCI-H322M lung) was 17.8 µM. It also gave a TGI (NCI-H322M lung) of 31.9 µM, a GI50 (NCI-H460 NSCLC) of 12.3 µM and a TGI (NCI-H460 NSCLC) of 25 µM. The GI50 (NCI-H522 lung) was 3.29 µM, the TGI (NCI-H522 lung) was 11.3 µM and the GI50 (NCI/ADR-RES ovarian) was 15.4 µM. The TGI (NCI/ADR-RES ovarian) was 31.1 µM, the GI50 (OVCAR-3 ovarian) was 12.3 µM and the TGI (OVCAR-3 ovarian) was 24.8 µM. The GI50 (OVCAR-4 ovarian) was 3.76 µM, the TGI (OVCAR-4 ovarian) was 15.6 µM and the GI50 (OVCAR-5 ovarian) was 17.6 µM. The TGI (OVCAR-5 ovarian) was 33.2 µM, the GI50 (OVCAR-8 ovarian) was 14.2 µM and the TGI (OVCAR-8 ovarian) was 27.7 µM. It also gave a GI50 (PC-3 prostate) of 11.1 µM, a TGI (PC-3 prostate) of 23.4 µM and a GI50 (RPMI-8226 leukemia) of 2.82 µM. It also gave a TGI (RPMI-8226 leukemia) of 6.86 µM, a GI50 (RXF 393 renal) of 0.407 µM and a TGI (RXF 393 renal) of 3.86 µM. It also gave a GI50 (SF-268 CNS) of 14.9 µM, a TGI (SF-268 CNS) of 30 µM and a GI50 (SF-295 CNS) of 11.9 µM. For the same compound, the TGI (SF-295 CNS) was 24.6 µM, the GI50 (SF-539 CNS) was 13.8 µM and the TGI (SF-539 CNS) was 27.5 µM. It also gave a GI50 (SK-MEL-2 melanoma) of 8.59 µM, a TGI (SK-MEL-2 melanoma) of 20.3 µM and a GI50 (SK-MEL-28 melanoma) of 16.3 µM. The TGI (SK-MEL-28 melanoma) was 30.2 µM, the GI50 (SK-MEL-5 melanoma) was 7.25 µM and the TGI (SK-MEL-5 melanoma) was 19.8 µM. It also gave a GI50 (SK-OV-3 ovarian) of 16.7 µM, a TGI (SK-OV-3 ovarian) of 33.2 µM and a GI50 (SN12C renal) of 13.4 µM. For the same compound, the TGI (SN12C renal) was 26.4 µM, the GI50 (SNB-19 CNS) was 14.1 µM and the TGI (SNB-19 CNS) was 28.2 µM. The GI50 (SNB-75 CNS) was 2.19 µM, the TGI (SNB-75 CNS) was 7.15 µM and the GI50 (SR leukemia) was 2.21 µM. The TGI (SR leukemia) was 4.91 µM, the GI50 (SW-620 colon) was 14 µM and the TGI (SW-620 colon) was 27.3 µM. It also gave a GI50 (T-47D breast) of 5.89 µM, a TGI (T-47D breast) of 17.6 µM and a GI50 (TK-10 renal) of 18.1 µM. For the same compound, the TGI (TK-10 renal) was 32.1 µM, the GI50 (U251 glioblastoma) was 11.7 µM and the TGI (U251 glioblastoma) was 24.7 µM. For the same compound, the GI50 (UACC-257 melanoma) was 3.27 µM, the TGI (UACC-257 melanoma) was 9.64 µM and the GI50 (UACC-62 melanoma) was 12.8 µM. The TGI (UACC-62 melanoma) was 27.1 µM.
